Data: article PMC10822852, “Structural and biochemical insights into the mechanism of the Gabija bacterial immunity system” (Nature Communications, 2024)

What was measured:
[1] = molecular target: T1, Gabija complex (GajA and GajB) (Bacillus cereus, UniProt J8H9C1+J8HQ06); assay: inhibition of DNA cleavage, agarose gel; assay type: biochemical; details: 1 mM MgCl2, pH 9, 37 °C, 5 min
T1 construct: full-length GajA (1-578, Strep-tag II) co-expressed with full-length GajB (1-493, 6xHis) in E. coli BL21(DE3); hetero-octamer 4:4

[2] = molecular target: the molecule itself; assay: SEC-MALS; Superdex 200 10/300 Increase, samples injected at 1 mg/ml in Buffer B (10 mM Tris-HCl pH 7.5, 300 mM NaCl, 2 mM DTT), 0.5 ml/min; GajA, GajB and the co-purified Gabija complex

T1 sequence (J8HQ06 1-493, one chain of several): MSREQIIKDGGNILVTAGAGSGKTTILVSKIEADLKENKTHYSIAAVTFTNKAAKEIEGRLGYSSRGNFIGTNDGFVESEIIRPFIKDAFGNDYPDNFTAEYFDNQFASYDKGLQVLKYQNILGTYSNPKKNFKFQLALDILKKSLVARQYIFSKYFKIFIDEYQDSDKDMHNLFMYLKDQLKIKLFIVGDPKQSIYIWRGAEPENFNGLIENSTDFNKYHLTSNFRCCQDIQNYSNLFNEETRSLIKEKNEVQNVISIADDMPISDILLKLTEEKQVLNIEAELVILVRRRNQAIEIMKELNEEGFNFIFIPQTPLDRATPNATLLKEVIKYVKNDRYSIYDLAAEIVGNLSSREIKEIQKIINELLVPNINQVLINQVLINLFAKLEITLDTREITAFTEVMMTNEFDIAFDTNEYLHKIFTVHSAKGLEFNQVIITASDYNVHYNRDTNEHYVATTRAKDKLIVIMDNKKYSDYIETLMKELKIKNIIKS

Molecule	inhibition of DNA cleavage, agarose gel ([1]; supercoiled pUC19-15 plasmid)	also measured
Nc1nc2c(ncn2[C@@H]2O[C@H](COP(=O)(O)OP(=O)(O)OP(=O)(O)O)[C@@H](O)[C@H]2O)c(=O)[nH]1 [GTP]	significantly inhibited with the increased concentration of ATP and GTP	–
Nc1ncnc2c1ncn2[C@@H]1O[C@H](COP(=O)(O)OP(=O)(O)NP(=O)(O)O)[C@@H](O)[C@H]1O [AMP-PNP]	–	inhibition of DNA cleavage, agarose gel ([1]; non-hydrolysable ATP analogue, DNA substrate not given): cleavage activity of the Gabija complex is also inhibited by AMP-PNP
Nc1ncnc2c1ncn2[C@@H]1O[C@H](COP(=O)(O)OP(=O)(O)O)[C@@H](O)[C@H]1O [ADP]	significantly inhibited by different NTP, dNTP, ADP, but not AMP	–
GajA (enzyme, Bacillus cereus VD045, UniProt J8H9C1 1-578, looked up, OLD family nuclease with ATPase domain (1-351) and Toprim domain (352-578); The methods describe only the co-expression and purification of the complex; Cloned into PET-52b; also called GajA1; GajA2; source: E. coli BL21 (DE3), purified (Strep-tactin Sepharose, Superdex 200); co-expressed with GajB for the Gabija complex) MKFSNITIKNFRNFEKVNINLDNKNVIFGMNDIGKTNFLYALRFLLDKEIRKFGFNKSDYHKHDTSKKIEIILTLDLSNYEKDEDTKKLISVVKGARTSANADVFYIALESKYDDKELYGNIILKWGSELDNLIDIPGRGNINALDNVFKVIYINPLVDLDKLFAQNKKYIFEESQGNESDEGILNNIKSLTDQVNQQIGEMTIIKGFQQEITSEYRSLKKEEVSIELKSEMAIKGFFSDIIPYIKKDGDSNYYPTSGDGRRKMLSYSIYNYLAKKKYEDKIVIYLIEEPEISLHRSMQIALSKQLFEQSTYKYFFLSTHSPELLYEMDNTRLIRVHSTEKVVCSSHMYNVEEAYGSVKKKLNKALSSALFAERVLLIEGPSEKILFEKVLDEVEPEYELNGGFLLEVGGTYFNHYVCTLNDLGITHIIKTDNDLKSKKGKKGVYELLGLNRCLNLLGRENLDEITIDIPEDIKGKKKKERLNERKKEIFKQYKNEVGEFLGERIYLSEIDLENDLYSAIGESMKRIFENEDPVHYLQKSKLFNMVELVNNLSTKDCFDVFEHEKFACLKELVGSDRG	–	stoichiometry N [2]: 4
